Data: patent US11730751B2, “Treating and preventing motor neuron diseases using nicotinamide riboside” (Elysium Health, Inc., priority 2017, dated 2023)

Legend:
Format in all cases: in vivo
[1] = tested on: transgenic SOD1 G93A mice; assay: Survival time of SOD1 G93A mice (Kaplan-Meier); details: in words, oral 185 mg NR and/or 30 mg PT or R per Kg per day, FIG. 1-2
Text: (§1) 1. B6.Cg-Tg(SOD1*G93A)1Gur/J (https://www.jax.org/strain/004435)
(§2) Mice hemizygous for this SOD1-G93A (also called G93A-SOD1) transgene were viable and fertile, with transgenic expression of a G93A mutant form of human SOD1. This founder line (often referred to as G1H) was reported to have high transgene copy number. […] Motor neuron degeneration has been associated with function and/or degeneration of astrocytes, the major glial cell type of the nervous system. […] Female hemizygotes were poor breeders, and rarely produced more than one litter before the onset of disease. […] The pattern of gene expression in SOD1G93A activated microglia represented a unique ALS-specific signature. These SOD1-G93A (also called G93A-SOD1) transgenic mice were useful in studying neuromuscular disorders, including Amyotrophic Lateral Sclerosis.
(§3) Nicotinamide riboside, pterostilbene, and resveratrol were administered orally: 185 mg of nicotinamide riboside and/or 30 mg of pterostilbene or resveratrol per Kg per day were administered to the mice.

[2] = tested on: transgenic SOD1 G93A mice; assay: Motor behavior and performance tests in SOD1 mice (FIG. 3-9); details: in words; for motor functions of SOD1 mice: FIG. 3-9, benefits only in the last weeks of the experiment
Text: as §1, §2, §3
This score was based on the scale of Weydt et al. (Neuroreport 14: 1051-1054, 2003). […] When the animals reached a score of “4”, the access to food and water was facilitated by placing food pellets on the cage floor to all transgenic mice. Reaching a score of “5”, the animals were euthanized for ethical reasons. […] Changes over time in the different groups were monitored weekly from week 8 (P50) to week 20 (P140).
This score was based on the SHIRPA tail scale, procedure developed by Rogers et al. (Mamm. Genome 8: 711-713, 1997) in the MRC, United Kingdom. […] Changes over time in the different groups were monitored weekly.
Functions of the test included evaluating balance, grip strength and motor coordination of the subjects; especially in testing the effect of experimental drugs. For this test (Rota Rod, Harvard Apparatus, Holliston, Mass.), each animal was given three trials and the maximum period (seconds) that it could remain on a rotating axle (3.5 cm diameter; speed of rotation: 15 rpm) without falling was measured. Each mouse was given up to three attempts for an arbitrary limit of 1200 seconds and the longest period was recorded. Changes over time in the different groups were monitored weekly.
Motor function and deficit in rodent models of CNS disorders were evaluated. […] Each mouse was given up to three attempts for a maximum of 180 seconds and the longest period was recorded. Changes over time in the different groups were monitored weekly.
For this locomotor rating test, a flat rolling band (Treadmill, Harvard Apparatus) was used and set at an angle of 5°. […] Each mouse was given two trials and the maximum distance run and the number of electrical stimuli received during the test (not exceeding 3 seconds) were recorded. […]

[3] = tested on: transgenic SOD1 G93A mice; assay: Electrophysiological measurements (CMAP, gastrocnemius muscle after sciatic nerve stimulation) in SOD1 mice; details: in words, FIG. 9
Protocol: Nicotinamide riboside, pterostilbene, and resveratrol were administered orally: 185 mg of nicotinamide riboside and/or 30 mg of pterostilbene or resveratrol per Kg per day were administered to the mice. Changes over time in evoked Compound Motor Action Potential (CMAP) in the gastrocnemius muscle after stimulation of the sciatic nerve were monitored at P50 (week 8) and […] (week 18). Recordings were made on a 2-channel electromyography system (Keypoint portable; Medtronic, Skovlunde, Denmark), with the high-frequency filter set at 5 kHz and the low-frequency filter set at 2 Hz. Electric stimulation produces artifacts; to reduce them, rectangular monophase electric pulses with a pulse width of 0.04 ms were used. For CMAP measurements the stimulation electrode was placed on the nerve at distance of 1 cm from the recording electrode placed on the gastrocnemius muscle through percutaneous puncture in the distal third of the paw, ipsilaterally to the surgical procedure, with a coaxial needle. The data of CMAP amplitude were expressed in millivolts, the data of latency were expressed in milliseconds and the data of nerve conduction velocity were expressed in meters per second (m/s). The number of animals tested per time point and group was of n=4.

Oc1ccc(C=Cc2cc(O)cc(O)c2)cc1 [Resveratrol, resveratrol, reference compound]
survival of SOD1 mice [1]: showed no benefit
motor functions of SOD1 mice [2]: showed no benefit
statistical comparison with the same group without R (SOD1 vs SOD1+R; SOD1+NR vs SOD1+NR+R) ([2]; Student's t-test): did not show significant differences

NC(=O)c1ccc[n+]([C@@H]2O[C@H](CO)[C@@H](O)[C@H]2O)c1 [NR, nicotinamide riboside]
motor action potential [3]: preserving motor action potential
motor functions of SOD1 mice [2]: improved motor functions

COc1cc(/C=C/c2ccc(O)cc2)cc(OC)c1 [PT, pterostilbene]
survival of SOD1 mice [1]: did not improve survival
motor functions of SOD1 mice [2]: but not PT alone improved motor functions
